The values that follow are results of earlier work, collected in patent US20220265565A1, “NANOTECHNOLOGY-BASED DELIVERY SYSTEM OF BERGAMOT ESSENTIAL OIL, METHOD OF PREPARATION OF THE SYSTEM AND USES THEREOF” (priority 2019, published 2022).

For series [1], the system named is nociceptive response in the capsaicin test. The conditions noted are these: for nociceptive response in the capsaicin test: intraplantar (i.pl.) administration.
Series [2] relates to PSNL-induced neuropathic pain symptoms in mice.
The conditions of series [3]: about 0.2% in the nonvolatile residue of BEO.

The structures appear in SMILES notation.

As to `C=CC(C)(O)CCC=C(C)C` (stereo not drawn) [linalool], in series [1], the “nociceptive response in the capsaicin test” value is reported as “reduced the nociceptive response”. Besides, the “morphine-induced antinociception with combined injection” value in series [1] (morphine i.p. or i.t. combined with i.pl. injection of the substance) is “markedly enhanced”. Also, the “neuropathic pain symptoms / mechanical allodynia” value in series [2] (neuropathic pain models, PSNL mice, i.pl. injection) is listed as “reduced partial sciatic nerve ligation (PSNL)-induced neuropathic pain symptoms”. Further, the morphine-induced anti-allodynic effect result in series [2] (under neuropathic pain) is “modulate morphine-induced anti-allodynic effect”.
Turning to `C=CC(C)(CCC=C(C)C)OC(C)=O` (stereo not drawn) [linalyl acetate], the “nociceptive response in the capsaicin test” value in series [1] is listed as “reduced the nociceptive response”.
Turning to `COc1c2ccoc2cc2oc(=O)ccc12` [bergapten, 5-methoxypsoralen], the phototoxicity entry in series [3] is “responsible for the phototoxicity of BEO”.
